Reference: ChEMBL document CHEMBL4706671, “A High-Affinity Peptide Ligand Targeting Syntenin Inhibits Glioblastoma” (J Med Chem, 2021)
The source made the active and inactive calls. The rule behind the calls is not given here. Non-standard residues stand in square brackets, D forms with d. Residues, ends and D or L forms follow the SMILES beside them. *: point of attachment. X1 = CN(C)c1ccc2c(-c3cc(C(=O)*)ccc3C(=O)[O-])c3ccc(=[N+](C)C)cc-3oc2c1; Biotin = O=C1N[C@H]2[C@H](CS[C@H]2CCCCC(=O)*)N1; Chg = N[C@H](C(=O)O)C1CCCCC1; Tle = CC(C)(C)[C@H](N)C(=O)O; AEEA = NCCOCCOCC(=O)O

Legend:
GBM [1] = test: Antineoplastic activity against human patient-derived GBM001 cells assessed as reduction in cell viability incubated for 72 hrs by Cell-titer-Glo luminescent cell viability assay; assay type: functional, cell-based
MCF7 = test: Antineoplastic activity against human MCF7 cells assessed as reduction in cell viability at 10 to 30 uM incubated for 72 hrs by Cell-titer-Glo luminescent cell viability assay; assay type: functional, cell-based; details: dose 10-30 µM
HT-29 = test: Antineoplastic activity against human HT-29 cells assessed as reduction in cell viability at 10 to 30 uM incubated for 72 hrs by Cell-titer-Glo luminescent cell viability assay; assay type: functional, cell-based; details: dose 10-30 µM
A2058 = test: Antineoplastic activity against human A2058 cells assessed as reduction in cell viability incubated for 72 hrs by Cell-titer-Glo luminescent cell viability assay; assay type: functional, cell-based
[2] = target: T1, Syntenin-1 (Homo sapiens) (UniProt O00560); test: (§1) Inhibition of syntenin-PDZ1-2 domain (unknown origin) expressed in Escherichia coli BL21 (DE3) incubated for 5 mins by fluorescence polarization assay
T1 sequence (whole entry): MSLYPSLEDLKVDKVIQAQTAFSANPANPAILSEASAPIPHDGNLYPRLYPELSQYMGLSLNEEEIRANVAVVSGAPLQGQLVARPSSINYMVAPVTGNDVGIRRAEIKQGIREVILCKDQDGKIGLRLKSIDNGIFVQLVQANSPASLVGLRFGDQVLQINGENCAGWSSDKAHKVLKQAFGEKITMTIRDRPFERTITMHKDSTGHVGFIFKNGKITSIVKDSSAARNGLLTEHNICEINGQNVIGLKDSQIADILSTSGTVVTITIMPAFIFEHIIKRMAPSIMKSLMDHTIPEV

[3] = Stability in mouse hepatic microsomes assessed as half life for compound degradation at […] in presence of NADPH by UPLC analysis; assay type: ADME, Microsome; details: liver microsomes
[4] = target: T1, Syntenin-1 (Homo sapiens); test: Inhibition of mCherry-labeled-syntenin expressed in human MCF7 cells co-expressing […] Q79L mutant assessed as reduction in syntenin-dependent intracellular endosomal budding at 0.1 to 10 uM incubated for 24 hrs; assay type: cell-based; details: dose 0.1-10 µM
GBM [5] = test: Antineoplastic activity against human patient-derived GBM002 cells assessed as reduction in cell viability incubated for 72 hrs by Cell-titer-Glo luminescent cell viability assay; assay type: functional, cell-based
Astrocyte = test: Cytotoxic activity against normal human astrocytes assessed as reduction in cell viability at 20 to 30 uM incubated for 24 hrs by Cell-titer-Glo luminescent cell viability assay; assay type: cell-based; details: dose 20-30 µM
HEK293 = test: Cytotoxic activity against HEK293 cells assessed as reduction in cell viability at 12.5 to 50 uM incubated for 24 hrs by Cell-titer-Glo luminescent cell viability assay; assay type: cell-based; details: human, hek293, 24 h, dose 12.5-50 µM
[6] = Drug distribution in cytoplasm of human patient-derived GBM002 cells at 10 to 30 uM incubated for 2 to 24 hrs hrs by confocal microscopy; assay type: ADME, subcellular; details: gbm, dose lower 10 µM, time lower 2 hrs, dose upper 30 µM, time upper 24 hrs
GBM [7] = test: Antineoplastic activity against human patient-derived GBM cells xenografted in NMRInu-F receiving GBM cells pre-treated with 50 uM compound for 24 hrs assessed as median survival time (reference value: 25 days); assay type: functional
Syntenin-1 [8] = target: T2, Syntenin-1 (Homo sapiens, UniProt O00560); test: as §1
T2 sequence (O00560 whole entry): T1 sequence (whole entry)

[9] = Stability in human plasma assessed as half life for compound degradation at 0.2 mM by UPLC analysis; assay type: ADME, cell-free
Syntenin-1 [10] = target: T2, Syntenin-1; test: Binding affinity to syntenin-PDZ1-2 domain (unknown origin) expressed in Escherichia coli BL21 (DE3) by SPR analysis
[11] = target: T1, Syntenin-1 (Homo sapiens); test: Binding affinity to syntenin-PDZ1-2 domain (unknown origin) expressed in Escherichia coli BL21 (DE3) assessed as apparent association rate constant by SPR analysis
[12] = target: T1, Syntenin-1 (Homo sapiens); test: Binding affinity to syntenin-PDZ1-2 domain (unknown origin) expressed in Escherichia coli BL21 (DE3) assessed as apparent dissociation rate constant by SPR analysis
[13] = target: T1, Syntenin-1 (Homo sapiens); test: Binding affinity to human syntenin-PDZ1 domain assessed as binding intensity by HTS holdup assay
[14] = target: T1, Syntenin-1 (Homo sapiens); test: Binding affinity to human syntenin-PDZ2 domain assessed as binding intensity by HTS holdup assay
Homo sapiens = species: Homo sapiens; test: Selectivity index, ratio of Kd for binding affinity to syntenin2-PDZ1-2 domain (unknown origin) expressed in Escherichia coli BL21 (DE3) by SPR analysis to Kd for binding affinity to syntenin-PDZ1-2 domain (unknown origin) expressed in Escherichia coli BL21 (DE3) by SPR analysis

**Q.** What does the source list for `CC[C@H](C)[C@H](NC(=O)[C@H](CC(=O)O)NC(=O)CNC(=O)[C@H](Cc1cnc[nH]1)NC(=O)[C@H](CS)NC(=O)[C@H](CCC(=O)O)NC(=O)[C@H](CC(C)C)NC(=O)[C@@H](NC(=O)[C@H](Cc1c[nH]c2ccccc12)NC(=O)[C@H](Cc1cnc[nH]1)NC(=O)[C@H](CO)NC(=O)[C@H](CCCNC(=N)N)NC(=O)[C@H](CCCNC(=N)N)NC(=O)[C@H](CCCCN)NC(=O)[C@H](CCCCN)NC(=O)[C@H](CCCNC(=N)N)NC(=O)CNC(=O)[C@H](CCCNC(=N)N)NC(=O)[C@H](CCCNC(=N)N)NC(=O)[C@H](CCCNC(=N)N)NC(=O)[C@H](CS)NC(=O)[C@H](C)N)[C@@H](C)O)C(=O)O` (H-ACRRRGRKKRRSHWTLECHGDI-OH)?
**A.** Activity (GBM [1]): Dose-dependent effect; Activity (MCF7): inactive; Activity (HT-29): inactive; Activity (A2058): Dose-dependent effect; inhibition [2]: Active; half-life [3]: > 1 h; inhibition [4]: Dose-dependent effect; Activity (GBM [5]): Dose-dependent effect; Activity (Astrocyte): Toxic; Activity (HEK293): Toxic; Drug uptake [6]: Dose-dependent effect and Tde; MST (GBM [7]): 45.5 days

**Q.** Which half-life [3] does the source give for `CC[C@H](C)[C@H](NC(=O)[C@H](CC(=O)O)NC(=O)[C@@H](NC(=O)[C@@H](NC(=O)[C@H](Cc1c[nH]c2ccccc12)NC(=O)[C@H](Cc1c[nH]cn1)NC(=O)[C@H](CO)NC(=O)[C@H](CCCNC(=N)N)NC(=O)[C@H](CCCNC(=N)N)NC(=O)[C@H](CCCNC(=N)N)NC(=O)[C@H](CCC(N)=O)NC(=O)[C@H](CCCNC(=N)N)NC(=O)[C@H](CCCNC(=N)N)NC(=O)[C@H](CCCCN)NC(=O)[C@H](CCCCN)NC(=O)[C@H](CCCNC(=N)N)NC(=O)CNC(=O)[C@H](Cc1ccc(O)cc1)NC(C)=O)C(C)(C)C)C1CCCCC1)C(=O)O` here?
**A.** The half-life was over 1 h.

**Q.** Which Ki (Syntenin-1 [8]) does the source give for `CC[C@H](C)[C@@H](NC(=O)[C@H](CC(=O)O)NC(=O)[C@@H](NC(=O)[C@@H](NC(=O)[C@H](Cc1c[nH]c2ccccc12)NC(=O)[C@H](Cc1cnc[nH]1)NC(=O)[C@H](CO)NC(=O)[C@H](CCCNC(=N)N)NC(=O)[C@H](CCCNC(=N)N)NC(=O)[C@H](CCCNC(=N)N)NC(=O)[C@H](CCC(N)=O)NC(=O)[C@H](CCCNC(=N)N)NC(=O)[C@H](CCCNC(=N)N)NC(=O)[C@H](CCCCN)NC(=O)[C@H](CCCCN)NC(=O)[C@H](CCCNC(=N)N)NC(=O)CNC(=O)[C@H](Cc1ccc(O)cc1)NC(C)=O)C(C)(C)C)C1CCCCC1)C(=O)O` here?
**A.** Its Ki is 250 nM.

**Q.** What about the inhibition [4] of the same molecule?
**A.** Its inhibition is “Dose-dependent effect”.

**Q.** Which Ki (Syntenin-1 [8]) does the source give for `CC[C@H](C)[C@H](NC(=O)[C@H](Cc1cnc[nH]1)NC(=O)[C@@H](NC(=O)[C@@H](NC(=O)[C@@H](N)CC(=O)O)C1CCCCC1)C(C)(C)C)C(=O)N[C@@H](Cc1c[nH]c2ccccc12)C(=O)N[C@@H](CO)C(=O)O` (H-D[Chg][Tle]HIWS-OH) here?
**A.** The Ki was over 500000 nM.

**Q.** For H-TTNEFYA-OH, which Ki (Syntenin-1 [8]) is on record?
**A.** The Ki was 2000 nM.

**Q.** For `CC[C@H](C)[C@H](NC(=O)[C@H](CC(=O)O)NC(=O)[C@@H](NC(=O)[C@@H](NC(=O)[C@H](Cc1c[nH]c2ccccc12)NC(=O)[C@H](Cc1cnc[nH]1)NC(=O)[C@H](CO)NC(=O)CNC(=O)[C@H](CC(N)=O)NC(=O)[C@H](CC(N)=O)NC(=O)c1ccc(C(=O)[O-])c(-c2c3ccc(=[N+](C)C)cc-3oc3cc(N(C)C)ccc23)c1)C(C)(C)C)C1CCCCC1)C(=O)O` (X1-NNGSHW[Tle][Chg]DI-OH), which Ki (Syntenin-1 [8]) is on record?
**A.** Its Ki is 30 nM.

**Q.** Which Ki (Syntenin-1 [8]) does the source give for H-SKGETAV-OH here?
**A.** The Ki was 10000 nM.

**Q.** Which Ki (Syntenin-1 [8]) does the source give for `CC[C@H](C)[C@@H](NC(=O)[C@H](CC(=O)O)NC(=O)[C@@H](NC(=O)[C@@H](NC(=O)[C@H](Cc1c[nH]c2ccccc12)NC(=O)[C@H](Cc1cnc[nH]1)NC(=O)[C@H](CO)NC(=O)[C@H](CCCNC(=N)N)NC(=O)[C@H](CCCNC(=N)N)NC(=O)[C@H](CCCNC(=N)N)NC(=O)[C@H](CCCNC(=N)N)NC(=O)[C@H](CCCNC(=N)N)NC(=O)[C@H](CCCNC(=N)N)NC(=O)[C@H](CCCNC(=N)N)NC(=O)[C@H](CCCNC(=N)N)NC(=O)[C@H](CCCNC(=N)N)NC(C)=O)C(C)(C)C)C1CCCCC1)C(=O)O` here?
**A.** The Ki was 250 nM.

**Q.** And the inhibition [4]?
**A.** The inhibition was “Dose-dependent effect”.

**Q.** With H-KDKEYYV-OH as the molecule, how does the Ki (Syntenin-1 [8]) read?
**A.** Its Ki is 110000 nM.

**Q.** Which Ki (Syntenin-1 [8]) does the source give for H-RSGYEVM-OH here?
**A.** Its Ki is 24000 nM.

**Q.** Which half-life [3] does the source give for `CC(C)NCC(O)COc1cccc2ccccc12` (stereo not drawn) [PROPRANOLOL] here?
**A.** Its half-life is 0.583 h.

**Q.** Which Ki (Syntenin-1 [8]) does the source give for H-NAIYSLA-OH here?
**A.** Its Ki is 100000 nM.

**Q.** For H-SHWTIDI-OH, which Ki (Syntenin-1 [8]) is on record?
**A.** Its Ki is 2000 nM.

**Q.** What about the half-life at 200 µM [9] of the same molecule?
**A.** Its half-life at 200 µM is 0.142 h.

**Q.** And the half-life [3]?
**A.** The half-life was over 1 h.

**Q.** For `CC[C@H](C)[C@@H](NC(=O)[C@H](CC(=O)O)NC(=O)[C@@H](NC(=O)[C@@H](NC(=O)[C@H](Cc1c[nH]c2ccccc12)NC(=O)[C@H](Cc1cnc[nH]1)NC(=O)[C@H](CO)NC(=O)[C@@H]1CCC(=O)NCCCC[C@H](NC(C)=O)C(=O)N[C@H](CCCNC(=N)N)C(=O)N[C@@H](CCCNC(=N)N)C(=O)N[C@H](CCCNC(=N)N)C(=O)NCC(=O)N[C@H](CCCNC(=N)N)C(=O)N[C@@H](CCCCN)C(=O)N[C@H](CCCCN)C(=O)N[C@@H](CCCNC(=N)N)C(=O)N[C@H](CCCNC(=N)N)C(=O)N1)C(C)(C)C)C1CCCCC1)C(=O)O`, which Activity (MCF7) is on record?
**A.** Its Activity is “inactive”.

**Q.** What about the Activity (HT-29) of the same molecule?
**A.** The Activity was “inactive”.

**Q.** What about the Activity (A2058) of the same molecule?
**A.** Its Activity is “Dose-dependent effect”.

**Q.** And the Ki (Syntenin-1 [8])?
**A.** The Ki was 250 nM.

**Q.** What about the half-life at 200 µM [9] of the same molecule?
**A.** The half-life at 200 µM was over 24 h.

**Q.** And the half-life [3]?
**A.** The half-life was over 1 h.

**Q.** What about the inhibition [4] of the same molecule?
**A.** The inhibition was “Dose-dependent effect”.

**Q.** For H-TLEDSVF-OH, which Ki (Syntenin-1 [8]) is on record?
**A.** Its Ki is 44000 nM.

**Q.** Which Ki (Syntenin-1 [8]) does the source give for `CC[C@H](C)[C@H](NC(=O)[C@H](CC(=O)O)NC(=O)[C@@H](NC(=O)[C@@H](NC(=O)[C@H](Cc1c[nH]c2ccccc12)NC(=O)[C@H](Cc1cnc[nH]1)NC(=O)[C@H](CO)NC(=O)COCCOCCNC(=O)CCCC[C@@H]1SC[C@@H]2NC(=O)N[C@@H]21)C(C)(C)C)C1CCCCC1)C(=O)O` ({Biotin-AEEA}-SHW[Tle][Chg]DI-OH) here?
**A.** The Ki was 190 nM.

**Q.** What about the Ki (Syntenin-1 [10]) of the same molecule?
**A.** The Ki was 170 nM.

**Q.** And the K [11]?
**A.** The K was 3.1 10^5/M/s.

**Q.** What about the K [12] of the same molecule?
**A.** The K was 0.05 s⁻¹.

**Q.** What about the Flu intensity [13] of the same molecule?
**A.** Its Flu intensity is 0.96.

**Q.** And the Activity [14]?
**A.** Its Activity is “inactive”.

**Q.** And the Ratio (Homo sapiens)?
**A.** Its Ratio is 440.
